From US7919481B2, “Inositol pyrophosphates, and methods of use thereof” (NormOxys, Inc., priority 2002, dated 2011)
Like-named read-outs stand apart in the source and are kept apart here. One block for each compound: values may come before it.

What was measured:
stripped hemoglobin = stripped hemoglobin (Homo sapiens, UniProt P68871); details: cited from earlier work
baker's yeast = type: in vitro ADME; details: pH 4.6
Protocol: ITPP was dissolved in a buffer solution of a pH 4.6 and heated in the presence of baker's yeast for 12 h at 45° C. Non selective hydrolysis of approximately 25% occurred.

[1] = 1-octanol/water partition coefficient Kow; type: physicochemical; details: after equilibration at 30 mM
Protocol: Partition coefficients relate to the distribution of a solute between two immiscible liquid phases and are defined as the ratios of concentrations (or molar fraction) of the distributed solute.
The partition coefficients for our compounds, Kow=[ITPP]1-octanol/[ITPP]water, were measured after equilibration at a concentration of 30 mM, close to the typical concentration employed for biological evaluations.

porcine hemoglobin = porcine hemoglobin (Sus scrofa, UniProt P02067); assay: In vitro P50 of porcine free hemoglobin with effector; type: biochemical, pig; details: porcine free hemoglobin 2.5 mM, effector 2.5 mM, 1:1; for P50 mm Hg: control 20.4, 19.9
Sequence of porcine hemoglobin (P01965 whole entry partner): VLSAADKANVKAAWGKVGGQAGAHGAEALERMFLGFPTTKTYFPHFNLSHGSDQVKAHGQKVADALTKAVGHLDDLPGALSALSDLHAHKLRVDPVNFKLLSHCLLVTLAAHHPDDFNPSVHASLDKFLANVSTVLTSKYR
Sequence of porcine hemoglobin (P02067 2-147 limits assumed): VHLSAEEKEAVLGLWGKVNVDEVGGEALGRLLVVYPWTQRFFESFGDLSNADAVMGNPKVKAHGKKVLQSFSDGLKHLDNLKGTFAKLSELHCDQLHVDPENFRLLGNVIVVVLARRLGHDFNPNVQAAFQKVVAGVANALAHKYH
Protocol: (§1) Two further effectors, kf133 and kf137, were tested in vitro for P50 shifts with porcine hemoglobin and whole blood. The compounds were well soluble. As usual, pH was adjusted to ˜7.0 and effector solution (2.5 mM) and hemoglobin (2.5 mM) were mixed at a 1:1 ratio. Whole blood and the effector solution were mixed at iso-osmolarity at pH=7. P50 values were measured as described in the previous experiments.

[2] = Solubility of effector solutions; type: physicochemical; details: pH ~7.0
Protocol: as §1

porcine whole blood = assay: In vitro P50 of porcine whole blood with effector (iso-osmolar); type: cell-based, pig; details: for P50 mm Hg: control 33.5
Protocol: as §1

C57BL/6 mice = assay: Tolerability of intraperitoneal injection in mice; type: in vivo; details: concentration of (up to) 120 mM
circulating RBC = assay: P50 shift of circulating RBC after (intraperitoneal) injection in mice; details: maximum; for shift in the Hb-O2 dissociation curve: IP injection
pig whole blood = assay: In vitro P50 in whole blood after incubation with effector; type: cell-based; details: effector 60 mM
Protocol: (§2) As usual, pH's for the compound-solutions were adjusted to ˜7.0, osmolarities for both solutions were determined (325-373 mOsM) prior to effectors, and whole blood volumes at 1:1 ratios were incubated.

mouse whole blood = assay: as above; type: cell-based; details: effector 60 mM
Protocol: as §2

human whole blood = assay: as above; type: cell-based; details: effector 60 mM
Protocol: as §2

whole blood = assay: In vitro incubation of whole blood of three species, summary statements; type: cell-based, human, mouse and pig; details: whole blood of human, mouse and pig, 60 mM
Protocol: as §2

[3] = Toxicity, general statements on the biological experiments; type: in vivo; details: general statement
[4] = Chemical hydrolysis of IHP-pyrophosphate at alkaline pH (31P-NMR); type: physicochemical
Protocol: Experiments designed to test IHP-pyrophosphate's resistance to chemical hydrolysis were conducted. ITPP N,N-dimethyl-cyclohexylammonium salt solutions were adjusted at pH 8.66, 10.20, 12.05 and 13.30. In order to avoid any damage to the NMR tubes due to the highly alkaline solutions, all samples were checked using ^31P-NMR at different time intervals against an external Ph3PO/DMSO solution. This method also avoided concentrating the samples and redissolving them in a deuterated solvent, which may have led to changes in the results. […] Observing this stability, we exposed the pH=13.30 sample to heat at 60° C. for 6 h. […] After 22 h at the same temperature, hydrolysis was only 19%. Facing this extreme stability to chemical hydrolysis we concentrated to dryness both solutions of pH 10.20 and 13.30 and dissolved them in D2O.

[5] = porcine whole blood, iso-osmolarity, pH=7

Sequence of stripped hemoglobin (P69905 2-142 partner limits assumed): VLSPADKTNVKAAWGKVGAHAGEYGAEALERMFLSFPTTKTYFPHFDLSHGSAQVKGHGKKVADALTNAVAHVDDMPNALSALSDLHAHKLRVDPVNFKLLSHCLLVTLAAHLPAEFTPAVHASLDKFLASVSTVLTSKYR
Sequence of stripped hemoglobin (P68871 2-147 limits assumed): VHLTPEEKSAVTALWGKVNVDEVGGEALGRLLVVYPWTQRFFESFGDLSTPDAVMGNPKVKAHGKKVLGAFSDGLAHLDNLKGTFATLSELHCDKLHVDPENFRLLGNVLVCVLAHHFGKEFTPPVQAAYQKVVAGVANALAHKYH

Compound: O=C(O)[C@@H](COP(=O)(O)O)OP(=O)(O)O [2,3-Diphosphoglycerate, 2,3-diphosph-D-glyceric acid]
O2 half-saturation pressure P(O2)(½) of stripped hemoglobin (stripped hemoglobin; pH 7.4, 25° C.): 12.0 mm Hg
O2 half-saturation pressure P(O2)(½) of stripped hemoglobin (stripped hemoglobin; pH 7.4, 37° C.): 23.7 mm Hg

non selective enzymatic hydrolysis (baker's yeast): approximately 25%
Compound: O=P1(O)OC2C3OP(=O)(O)OP(=O)(O)OC3C3OP(=O)(O)OP(=O)(O)OC3C2OP(=O)(O)O1 (stereo not shown) [ITPP, inositol tripyrophosphate]

Kow=[ITPP]1-octanol/[ITPP]water [1]: 0.0121
Compound: NC1CCCCCC1.NC1CCCCCC1.NC1CCCCCC1.NC1CCCCCC1.NC1CCCCCC1.NC1CCCCCC1.O=P1(O)OC2C3OP(=O)(O)OP(=O)(O)OC3C3OP(=O)(O)OP(=O)(O)OC3C2OP(=O)(O)O1 (stereo not shown) [cycloheptylammonium ITPP salt]

Compound: NC1CCCCCCC1.NC1CCCCCCC1.NC1CCCCCCC1.NC1CCCCCCC1.NC1CCCCCCC1.NC1CCCCCCC1.O=P1(O)OP(=O)(O)O[C@H]2[C@H](O1)[C@@H]1OP(=O)(O)OP(=O)(O)O[C@@H]1[C@H]1OP(=O)(O)OP(=O)(O)O[C@H]21 [cyclooctylammonium ITPP salt]
Kow=[ITPP]1-octanol/[ITPP]water [1]: 0.462

Compound: Hexanoy-IHP NN-DMCHA salt [kf137]
P50 Increase % (porcine hemoglobin): 120%
P50 mm Hg (porcine hemoglobin): 45.1 mm Hg
solubility [2]: well soluble
lysis of the RBC (porcine whole blood; porcine whole blood in vitro): Noticeable lysis
P50 mm Hg (porcine whole blood; [5]): 51.5 mm Hg
tolerability in mice (C57BL/6 mice): well tolerated

Compound: IHP Cholesteryoxy Carbonyl Hepta N,N-Dimethyl Cyclohexyl Ammonium Salt [kf16.4]
right shift in the P50 (circulating RBC; ip, 6 animals): up to 18%

Compound: IHP Cholesteryoxy Carbonyl Hepta N,N-Dimethyl Cyclohexyl Ammonium Salt [kf96]
P50 Increase % (pig whole blood; 1:1): 27%
P50 mm Hg (pig whole blood; 1:1, control 32.2): 41.1 mm Hg
P50 Increase % (mouse whole blood; 1:1): 20%
P50 mm Hg (mouse whole blood; 1:1, control 36.7): 43.9 mm Hg
P50 Increase % (human whole blood; 1:1): 27%
P50 mm Hg (human whole blood; 1:1, control 22.1): 28 mm Hg
shift in the Hb-O2 dissociation curve (circulating RBC; 30 mM): up to 17%
shift in the Hb-O2 dissociation curve (circulating RBC; 60 mM): up to 24%
right shift in the Hb-O2 dissociation curve, all blood samples (whole blood): 27%

Compound: IHP monopyrophosphate hexasodium salt [kf133]
P50 Increase % (porcine hemoglobin): 143%
P50 mm Hg (porcine hemoglobin): 48.5 mm Hg
toxicity / tolerability [3]: non-toxic
solubility [2]: well soluble
P50 Increase % (porcine whole blood; [5]): 14.5%
P50 mm Hg (porcine whole blood; [5]): 38.4 mm Hg
tolerability in mice (C57BL/6 mice): well tolerated

hydrolysis (changes in 31P-NMR) ([4]; pH 8.66, 10.20, 12.05, after 3 days): No changes were observed
change after concentration to dryness ([4]; pH 10.20, redissolved in D2O): remained unchanged
hydrolysis ([4]; pH=13.30, 60° C. for 6 h): 13%
hydrolysis ([4]; pH=13.30, 60° C., after 22 h): 19%
hydrolysis ([4]; pH=13.3, after 3 days): 7%
Compound: N,N-Dimethyl cyclohexyl ammonium Salt of Myo-inositol 1,6:2,3:4,5-Tripyrophosphate
change after concentration to dryness ([4]; pH=13.30, redissolved in D2O): completely converted to the IHP open form sodium salt
